The source of these data is publication PMC4362760, “JAK2^V617F Drives Mcl-1 Expression and Sensitizes Hematologic Cell Lines to Dual Inhibition of JAK2 and Bcl-xL” (PLoS ONE, 2015).

The target of assay [1] is T1, ACVR1 (Homo sapiens, UniProt Q04771).
T1 construct: purchased Invitrogen
Kind of assay: TR-FRET Kinome ACVR1. The conditions noted are these: ACVR1 Invitrogen .05(Subs Conc). The format is binding. The text has this: (§1) (XLS) Click here for additional data file.
(In general: In TR-FRET formats the signal depends on donor and acceptor labels being close together.)

Assay [2] has as its target Abl (Homo sapiens, UniProt P00519). Description: TR-FRET Kinome Abl. The assay is classed as binding. The settings on record: Abl Invitrogen .025(Subs Conc).
Text: as §1

Assay [3] concerns the target Akt1 (Homo sapiens, UniProt P31749). Description: TR-FRET Kinome Akt1. The format is binding. The conditions noted are these: Akt1 Invitrogen .2(Subs Conc).
Text: as §1

For assay [4], the target named is DYRK1B (Homo sapiens, UniProt Q9Y463). Description: TR-FRET Kinome DYRK1B. The conditions noted are these: DYRK1B Invitrogen .05(Subs Conc). The format is binding.
Text: as §1

Assay [5] has as its target EGFR (Homo sapiens, UniProt P00533). Description: TR-FRET Kinome EGFR. The format is binding. The conditions noted are these: EGFR Invitrogen .05(Subs Conc).
Text: as §1

In assay [6] the target is IGF1R (Homo sapiens, UniProt P08069). Description: TR-FRET Kinome IGF1R. The settings on record: IGF1R Invitrogen .05(Subs Conc). The assay is classed as binding.
IGF1R, sequence (P08069 31-1367): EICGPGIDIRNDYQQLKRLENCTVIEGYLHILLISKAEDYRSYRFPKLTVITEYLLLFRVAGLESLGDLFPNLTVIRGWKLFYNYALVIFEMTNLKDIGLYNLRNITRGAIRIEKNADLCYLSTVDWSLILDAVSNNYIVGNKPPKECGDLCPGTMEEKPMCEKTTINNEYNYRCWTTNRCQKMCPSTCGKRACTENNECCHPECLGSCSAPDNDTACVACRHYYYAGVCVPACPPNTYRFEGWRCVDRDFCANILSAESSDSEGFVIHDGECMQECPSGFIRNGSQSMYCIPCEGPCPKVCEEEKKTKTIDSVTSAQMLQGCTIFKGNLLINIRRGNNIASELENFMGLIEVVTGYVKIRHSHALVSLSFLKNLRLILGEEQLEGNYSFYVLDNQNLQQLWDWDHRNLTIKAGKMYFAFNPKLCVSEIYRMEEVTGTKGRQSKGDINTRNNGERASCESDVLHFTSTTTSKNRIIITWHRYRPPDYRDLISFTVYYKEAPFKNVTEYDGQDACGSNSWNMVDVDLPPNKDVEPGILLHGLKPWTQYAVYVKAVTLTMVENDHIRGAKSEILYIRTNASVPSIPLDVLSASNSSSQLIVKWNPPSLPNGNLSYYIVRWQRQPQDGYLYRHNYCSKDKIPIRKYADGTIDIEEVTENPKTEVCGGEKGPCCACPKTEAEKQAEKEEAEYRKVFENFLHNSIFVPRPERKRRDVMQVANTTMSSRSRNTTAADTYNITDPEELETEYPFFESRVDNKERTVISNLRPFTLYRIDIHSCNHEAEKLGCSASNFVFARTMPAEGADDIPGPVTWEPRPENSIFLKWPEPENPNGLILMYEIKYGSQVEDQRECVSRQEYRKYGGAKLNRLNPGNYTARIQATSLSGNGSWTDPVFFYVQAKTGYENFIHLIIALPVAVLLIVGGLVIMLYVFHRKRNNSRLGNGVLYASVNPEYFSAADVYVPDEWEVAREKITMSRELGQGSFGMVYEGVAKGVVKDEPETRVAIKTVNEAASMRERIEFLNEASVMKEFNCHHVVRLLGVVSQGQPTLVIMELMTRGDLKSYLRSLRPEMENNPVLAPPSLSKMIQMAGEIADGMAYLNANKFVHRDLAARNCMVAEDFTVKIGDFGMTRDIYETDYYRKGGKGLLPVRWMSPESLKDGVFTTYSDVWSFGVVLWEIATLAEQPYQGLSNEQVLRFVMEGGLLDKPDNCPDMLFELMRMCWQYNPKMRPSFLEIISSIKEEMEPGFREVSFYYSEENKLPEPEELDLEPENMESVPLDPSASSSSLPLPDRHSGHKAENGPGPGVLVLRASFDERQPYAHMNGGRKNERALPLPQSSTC
Text: as §1

Assay [7] has as its target MAP3K10 (Homo sapiens, UniProt Q02779). Description: TR-FRET Kinome MAP3K10. The conditions noted are these: MAP3K10 Invitrogen .005(Subs Conc). The format is binding.
Text: as §1

The target of assay [8] is MST1 (Homo sapiens, UniProt Q13043). Kind of assay: TR-FRET Kinome MST1. The format is binding. The settings on record: MST1 Invitrogen .05(Subs Conc).
MST1, sequence (Q13043 whole entry): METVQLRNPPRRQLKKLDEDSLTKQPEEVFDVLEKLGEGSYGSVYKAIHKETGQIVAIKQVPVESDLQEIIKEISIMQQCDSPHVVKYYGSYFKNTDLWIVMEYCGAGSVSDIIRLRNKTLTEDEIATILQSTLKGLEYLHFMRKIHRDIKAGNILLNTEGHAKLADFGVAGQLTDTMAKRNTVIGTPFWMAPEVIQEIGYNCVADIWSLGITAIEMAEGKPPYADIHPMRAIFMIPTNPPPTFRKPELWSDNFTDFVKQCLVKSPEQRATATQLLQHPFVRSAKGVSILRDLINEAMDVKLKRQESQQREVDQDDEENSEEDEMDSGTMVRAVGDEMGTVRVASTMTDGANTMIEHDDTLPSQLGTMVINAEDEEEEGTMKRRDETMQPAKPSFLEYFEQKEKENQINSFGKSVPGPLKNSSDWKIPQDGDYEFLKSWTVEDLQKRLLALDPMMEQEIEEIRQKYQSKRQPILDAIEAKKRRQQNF
Text: as §1

Assay [9] concerns the target STK16 (Homo sapiens, UniProt O75716). Description: TR-FRET Kinome STK16. The format is binding. The conditions noted are these: STK16 Invitrogen IVGN Tracer .05(Subs Conc).
Text: as §1

Assay [10] addresses STK33 (Homo sapiens, UniProt Q9BYT3). Description: TR-FRET Kinome STK33. The format is binding. The conditions noted are these: STK33 Invitrogen .005(Subs Conc).
Text: as §1

Assay [11] addresses TAOK2 (Homo sapiens, UniProt Q9UL54). Description: TR-FRET Kinome TAOK2. The format is binding. The conditions noted are these: TAOK2 Invitrogen .2(Subs Conc).
Text: as §1

In assay [12] the target is Wee1 (Homo sapiens, UniProt P30291). Description: TR-FRET Kinome Wee1. The assay is classed as binding. The conditions noted are these: Wee1 Carna Biosciences .015(Subs Conc).
Text: as §1

Assay [13] concerns STAT3 and STAT5 tyrosine phosphorylation. Description: Tyrosine phosphorylation of STAT3 and STAT5 by immunoblotting in leukemia cell lines. The format is cell-based. The method, then: SET-2, HEL, MV4;11, and K562 cells were obtained from ATCC and cultured as recommended. UKE-1 cells were purchased from Walter Fiedler (University of Hamburg). Cell lysates were either prepared using CHAPS lysis buffer (10 mM HEPES, pH 7.4, 150 mM NaCl, 1% CHAPS) or cell extraction buffer containing 1% Triton X-100, 0.1% SDS, and 0.5% deoxycholate. All buffers were supplemented with protease and phosphatase inhibitor cocktails prior to use.
(§2) Fig 1 Regulation of Mcl-1 and Bcl-XL by JAK2 ^V617F. […] Tyrosine phoshorylation of STAT3 and STAT5 was determined by immunoblotting. […] Constitutive tyrosine phosphorylation of STAT3 and STAT5 was determined by immunoblotting. […] Data represent means +/- standard deviation for two independent determinations each performed in triplicate. […] (G) Quantification of the data shown in (F). Data are expressed as the ratio of intensity of Mcl-1/β-actin for each time point. […] Data are means of duplicate samples and are representative of two independent experiments.
(Immunoblotting shows a protein as a band on a membrane.)

Assay [14] relates to Mcl-1 mRNA. Description: Mcl-1 mRNA abundance by qPCR in SET-2, UKE-1, HEL, MV4;11, K562 cells. The format is cell-based. The conditions noted are these: for MCL-1 % Control: treated vs non-treated (100.0); for MCL-1 Mean QTY: treated, normalised mRNA quantity by qPCR. A general note: Quantitative PCR measures a nucleic acid by following its amplification.
Assay [15] has as its system Bcl-XL mRNA. Kind of assay: Bcl-XL mRNA abundance by qPCR in SET-2, UKE-1, HEL, MV4;11, K562 cells. The assay is classed as cell-based. The conditions noted are these: for BCLxl % Control: treated vs non-treated (100.0); for BCLxl Mean QTY: treated, normalised mRNA quantity by qPCR. The protocol:
as §2
Data represent means +/- standard deviation for two independent determinations each performed in triplicate (data in Summary tab). Individual experimental data in exp 051409 and repeat Mcl1 tabs. (XLS) Click here for additional data file.

In assay [16] the test system is SET-2 cells. Kind of assay: alamarBlue cell viability, JAKi-I/ABT-263 combination, 72 hr, SET-2. The format is cell-based. The settings on record: SET-2, 72h, Jaki-1 0 uM. The protocol:
(§3) Transfection of siRNAs was performed using Lipofectamine RNAiMAX according to the manufacturer’s recommendations. […] Caspase-3 activity was determined using the Caspase-GLO 3/7 Assay (Promega) in parallel with the CellTiter-GLO viability assay (Promega). The data are expressed as Caspase-3/7 activity divided by cell viability.
(§4) Caspase-3 activity was determined at each time point. Data are from duplicate samples and are representative of at least three independent experiments. (D-G) Cells were treated in combination as indicated, and cell viability was determined after 72 hr. Data are means of duplicate determinations, and are representative of at least three independent experiments. […] Drugs were added simultaneously, and cell viability was determined after 72 hr. The data were then analyzed using the drug-drug interaction model of Bliss additivity^16 to define dose combinations that were synergistic (values >15; red), antagonistic (values <-15; blue), or without effect (-15<values<15; gray). (I) Model of JAK2/Bcl-2 family inhibitor synergy. JAK2^V617F constitutively phosphorylates and activates STAT3/5, thus enforcing expression of the transcriptional target, Mcl-1. Mcl-1 collaborates with Bcl-XL to oppose apoptosis and support viability.
(§5) Supplementary file pone.0114363.s006.xls: S6 Dataset Cells were treated in combination as indicated, and cell viability was determined using alamarBlue after 72 hr. Data are means of duplicate determinations, and are representative of at least three independent experiments. (XLS) Click here for additional data file.

Assay [17] relates to K562 cells. Kind of assay: alamarBlue cell viability, JAKi-I/ABT-263 combination, 72 hr, K562. The assay is classed as cell-based. The conditions noted are these: K562, 72h, Jaki-1 0 uM. The method, then:
as §3, §4, §5

Assay [18] deals with multiple xenograft models. The settings on record: oral, single agent and in combination with standard of care chemotherapies; cited from earlier work.

Where “and” joins values, the source holds several entries; their conditions need not be identical. Equal values may be shown once.

MAP3K10, sequence (Q02779 whole entry): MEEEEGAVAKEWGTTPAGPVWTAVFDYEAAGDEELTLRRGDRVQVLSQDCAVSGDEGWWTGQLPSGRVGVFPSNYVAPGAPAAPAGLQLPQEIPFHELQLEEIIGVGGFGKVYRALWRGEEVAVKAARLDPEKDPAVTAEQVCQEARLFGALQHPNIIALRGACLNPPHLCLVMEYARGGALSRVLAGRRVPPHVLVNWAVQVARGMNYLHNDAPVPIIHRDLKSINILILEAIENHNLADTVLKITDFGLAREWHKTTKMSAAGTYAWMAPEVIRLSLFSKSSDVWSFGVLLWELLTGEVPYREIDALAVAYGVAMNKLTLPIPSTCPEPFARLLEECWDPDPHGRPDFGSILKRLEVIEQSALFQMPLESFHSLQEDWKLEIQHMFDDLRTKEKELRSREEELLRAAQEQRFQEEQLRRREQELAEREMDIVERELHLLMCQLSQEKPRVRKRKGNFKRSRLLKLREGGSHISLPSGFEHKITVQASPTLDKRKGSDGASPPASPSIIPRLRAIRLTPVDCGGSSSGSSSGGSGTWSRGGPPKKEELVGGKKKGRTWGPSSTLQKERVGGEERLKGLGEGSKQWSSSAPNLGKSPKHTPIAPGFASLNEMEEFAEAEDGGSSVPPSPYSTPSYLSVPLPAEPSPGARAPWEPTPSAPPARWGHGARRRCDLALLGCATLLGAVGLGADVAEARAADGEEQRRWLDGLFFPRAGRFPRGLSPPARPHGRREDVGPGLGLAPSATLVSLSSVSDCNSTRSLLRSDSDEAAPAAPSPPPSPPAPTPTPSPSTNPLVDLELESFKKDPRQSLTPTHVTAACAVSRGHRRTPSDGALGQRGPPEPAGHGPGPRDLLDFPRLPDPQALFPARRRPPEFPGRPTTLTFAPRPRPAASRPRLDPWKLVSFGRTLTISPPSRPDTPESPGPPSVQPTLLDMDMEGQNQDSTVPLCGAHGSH
STK16, sequence (O75716 whole entry): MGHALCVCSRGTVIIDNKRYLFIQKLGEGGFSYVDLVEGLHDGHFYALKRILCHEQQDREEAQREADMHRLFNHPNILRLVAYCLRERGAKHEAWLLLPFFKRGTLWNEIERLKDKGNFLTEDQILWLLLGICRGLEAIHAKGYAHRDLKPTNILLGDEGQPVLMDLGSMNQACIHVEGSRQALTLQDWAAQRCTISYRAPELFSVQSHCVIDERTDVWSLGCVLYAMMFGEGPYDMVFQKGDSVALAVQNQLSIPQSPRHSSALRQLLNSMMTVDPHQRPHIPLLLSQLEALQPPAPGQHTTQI
Abl, sequence (P00519 whole entry): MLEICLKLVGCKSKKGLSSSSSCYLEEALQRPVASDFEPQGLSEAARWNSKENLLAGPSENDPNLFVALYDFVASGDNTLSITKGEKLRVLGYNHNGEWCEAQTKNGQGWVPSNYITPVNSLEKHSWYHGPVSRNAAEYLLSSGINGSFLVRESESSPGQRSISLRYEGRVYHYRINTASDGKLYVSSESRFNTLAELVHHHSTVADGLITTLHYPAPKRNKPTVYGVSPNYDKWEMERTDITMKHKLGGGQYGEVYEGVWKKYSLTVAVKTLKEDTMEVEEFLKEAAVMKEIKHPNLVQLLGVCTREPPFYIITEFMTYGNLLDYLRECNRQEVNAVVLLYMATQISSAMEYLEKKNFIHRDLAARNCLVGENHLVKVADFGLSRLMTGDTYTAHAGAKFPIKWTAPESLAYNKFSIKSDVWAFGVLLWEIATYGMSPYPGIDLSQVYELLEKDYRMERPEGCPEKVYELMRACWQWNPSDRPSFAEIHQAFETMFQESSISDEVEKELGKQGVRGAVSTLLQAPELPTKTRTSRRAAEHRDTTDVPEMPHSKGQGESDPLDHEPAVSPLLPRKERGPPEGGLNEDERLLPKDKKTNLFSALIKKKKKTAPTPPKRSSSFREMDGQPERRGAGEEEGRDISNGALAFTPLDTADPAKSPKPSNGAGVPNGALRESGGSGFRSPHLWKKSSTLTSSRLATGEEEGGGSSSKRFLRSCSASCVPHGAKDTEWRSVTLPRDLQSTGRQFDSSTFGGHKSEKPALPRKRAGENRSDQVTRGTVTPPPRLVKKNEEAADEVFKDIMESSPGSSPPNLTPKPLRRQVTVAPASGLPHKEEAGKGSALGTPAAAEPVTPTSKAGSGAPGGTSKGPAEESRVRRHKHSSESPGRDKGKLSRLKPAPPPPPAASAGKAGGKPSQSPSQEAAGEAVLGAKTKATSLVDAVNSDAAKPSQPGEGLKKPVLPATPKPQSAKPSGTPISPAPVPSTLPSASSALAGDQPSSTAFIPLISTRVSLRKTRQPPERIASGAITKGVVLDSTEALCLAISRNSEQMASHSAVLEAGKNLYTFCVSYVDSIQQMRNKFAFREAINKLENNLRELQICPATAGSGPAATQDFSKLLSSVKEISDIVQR
T1 sequence (Q04771 21-509): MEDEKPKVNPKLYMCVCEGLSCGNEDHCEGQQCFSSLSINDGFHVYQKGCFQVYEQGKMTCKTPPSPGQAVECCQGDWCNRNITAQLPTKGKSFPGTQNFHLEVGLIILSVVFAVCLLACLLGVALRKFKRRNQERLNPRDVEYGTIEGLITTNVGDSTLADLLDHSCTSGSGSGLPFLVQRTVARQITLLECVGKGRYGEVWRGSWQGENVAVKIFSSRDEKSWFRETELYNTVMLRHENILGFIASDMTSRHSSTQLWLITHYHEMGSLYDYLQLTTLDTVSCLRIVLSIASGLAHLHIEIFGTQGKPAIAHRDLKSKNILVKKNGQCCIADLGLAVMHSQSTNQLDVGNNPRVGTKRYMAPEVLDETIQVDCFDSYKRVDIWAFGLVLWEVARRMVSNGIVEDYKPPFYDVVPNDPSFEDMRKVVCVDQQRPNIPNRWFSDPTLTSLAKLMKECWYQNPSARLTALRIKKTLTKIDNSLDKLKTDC

Turning to `CC(C)(C)c1nc2c3cc[nH]c(=O)c3c3cc(F)ccc3c2[nH]1` [JAKi-I, JAK inhibitor I], the Ki (usually the dissociation constant of the complex between target and ligand, obtained from inhibition or displacement) was more than 4320 nM in assay [1]; more than 2600 nM in [2]; more than 5010 nM in assay [3]; more than 2650 nM in assay [4]; more than 1670 nM in [5]; more than 2650 nM in assay [6]. Further, the Ki was more than 3060 nM in assay [7]; 28 nM and 29.5 nM in assay [8]; more than 5410 nM in [9]; 30.2 nM in [10]; more than 6610 nM in [11]; more than 3640 nM in assay [12]. The “constitutive STAT3/5 phosphorylation” value in [13] (1 μM, 1 hr, serum-free, only in JAK2 V617F lines (SET-2, UKE-1, HEL), not K562, MV4;11) is “inhibited”. The “phosphorylation of both STAT3 and STAT5” value in [13] (UKE-1 (JAK2 V617F) cells, 10 min) is on record as “rapid, dose-dependent inhibition”. The “MCL-1 % Control” value in assay [14] (HEL cells) was 59.2674%; in [14] (K562 cells), 89.9219%; in assay [14] (SET2 cells), 37.995%. For the same molecule, the “MCL-1 Mean QTY” value in [14] (HEL cells) amounted to 25.0; in assay [14] (K562 cells) it was 50.9; in assay [14] (MV411 cells), 30.6; in [14] (SET2 cells) it was 47.0. For the same molecule, in [14] (following JAK inhibition, 6 hr), the Mcl-1 transcript level entry is listed as “sharply declined”. Besides, the “BCLxl % Control” value in assay [15] (HEL cells) is 30.4093%; in [15] (K562 cells), 93.9154%; in assay [15] (MV411 cells), 101.412%; in assay [15] (SET2 cells) it was 19.4966%. Also, the “BCLxl Mean QTY” value is given as 76.1 in assay [15] (HEL cells), 98.4 in assay [15] (K562 cells), 30.8 in assay [15] (MV411 cells) and 62.5 in assay [15] (SET2 cells). Moreover, the Bcl-XL transcript level result in [15] (following JAK inhibition, 6 hr) is given as “sharply declined”.

Regarding `CC1(C)CCC(c2ccc(Cl)cc2)=C(CN2CCN(c3ccc(C(=O)NS(=O)(=O)c4ccc(N[C@H](CCN5CCOCC5)CSc5ccccc5)c(S(=O)(=O)C(F)(F)F)c4)cc3)CC2)C1` [ABT-263], the “Viability (% Inhibiton)” value was 0% in assay [16] (ABT-263 0.003 uM); 3% in [16] (ABT-263 0.01 uM); 4% in assay [16] (ABT-263 0.03 uM); 28% in assay [16] (ABT-263 0.1 uM); 63% in [16] (ABT-263 0.3 uM); 95% in assay [16] (ABT-263 1 uM). Further, the “Viability (% Inhibiton)” value in [17] (ABT-263 0.003 uM) is on record as 0%; in assay [17] (ABT-263 0.01 uM), 0%; in assay [17] (ABT-263 0.03 uM), 0%; in assay [17] (ABT-263 0.1 uM), 0%; in [17] (ABT-263 0.3 uM), 10%; in [17] (ABT-263 1 uM), 19%. Besides, in assay [18], the “activity in xenograft models” value is on record as “pronounced oral activity”.
